Biological target: TRPV3 (mTRPV3) (Mus musculus, UniProt Q8K424)
Assay: cell-based

Chain of TRPV3 (mTRPV3) (Q8K424 whole entry): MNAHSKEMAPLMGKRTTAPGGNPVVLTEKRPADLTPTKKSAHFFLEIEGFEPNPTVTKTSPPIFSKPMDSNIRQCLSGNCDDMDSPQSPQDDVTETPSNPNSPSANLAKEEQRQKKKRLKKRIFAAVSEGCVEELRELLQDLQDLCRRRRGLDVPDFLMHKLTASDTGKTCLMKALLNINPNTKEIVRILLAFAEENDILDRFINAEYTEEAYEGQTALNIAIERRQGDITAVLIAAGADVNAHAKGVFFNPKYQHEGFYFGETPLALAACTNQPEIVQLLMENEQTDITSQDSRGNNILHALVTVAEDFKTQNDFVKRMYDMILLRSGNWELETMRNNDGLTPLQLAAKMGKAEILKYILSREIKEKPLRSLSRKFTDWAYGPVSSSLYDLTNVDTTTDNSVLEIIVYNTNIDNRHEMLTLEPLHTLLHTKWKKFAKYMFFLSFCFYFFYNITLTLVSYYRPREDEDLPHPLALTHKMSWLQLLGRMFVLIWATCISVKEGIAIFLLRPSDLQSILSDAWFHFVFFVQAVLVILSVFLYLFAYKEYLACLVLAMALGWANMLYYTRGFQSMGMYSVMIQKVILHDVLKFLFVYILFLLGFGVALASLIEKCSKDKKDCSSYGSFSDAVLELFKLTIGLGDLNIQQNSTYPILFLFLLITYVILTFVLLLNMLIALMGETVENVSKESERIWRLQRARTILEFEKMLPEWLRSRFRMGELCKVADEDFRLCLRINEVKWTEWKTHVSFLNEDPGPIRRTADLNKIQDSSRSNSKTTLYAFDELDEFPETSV

EC50: 57.4 ± 3.2 µM
Structure (SMILES): NCCOB(c1ccccc1)c1ccccc1 [2-APB]
